Data reported in ChEMBL document CHEMBL3603790, “2- and 3-Fluoro-3-deazaneplanocins, 2-fluoro-3-deazaaristeromycins, and 3-methyl-3-deazaneplanocin: Synthesis and antiviral properties” (Bioorg Med Chem, 2015).
Activity calls are given as the source filed them. The rule behind the calls is not given here.

Legend:
[1] = Cytotoxicity against human Ava5 cells; type: cell-based
Dengue virus = assay: Antiviral activity against Dengue virus infected in African green monkey Vero cells after 3 days by neutral red dye-based plaque reduction assay; type: functional, organism-based
[2] = tested on: Respiratory syncytial virus; assay: Antiviral activity against Respiratory syncytial virus infected in monkey MA104 cells after 3 days by neutral red dye-based plaque reduction assay; type: functional, organism-based
[3] = tested on: Venezuelan equine encephalitis virus; assay: Antiviral activity against Venezuelan equine encephalitis virus infected in African green monkey Vero cells after 3 days by neutral red dye-based plaque reduction assay; type: functional, organism-based
HEL = assay: Cytotoxicity against HEL cells; type: cell-based; details: human
[4] = tested on: Respiratory syncytial virus; assay: Antiviral activity against Respiratory syncytial virus infected in human HeLa cells after 3 days by neutral red dye-based plaque reduction assay; type: functional, organism-based
Tacaribe virus = assay: Antiviral activity against Tacaribe virus infected in African green monkey Vero 76 cells after 3 days by neutral red dye-based plaque reduction assay; type: functional, organism-based; details: Mammarenavirus tacaribeense
Rift Valley fever virus = assay: Antiviral activity against Rift Valley fever virus infected in African green monkey Vero 76 cells after 3 days by neutral red dye-based plaque reduction assay; type: functional, organism-based
[5] = Selectivity index, ratio of CC50 for African green monkey CV1 cells to IC50 for Measles virus; type: functional, CV-1
West Nile virus = assay: Antiviral activity against WNV infected in African green monkey Vero 76 cells after 3 days by neutral red dye-based plaque reduction assay; type: functional, organism-based
Vero = assay: (§1) Cytotoxicity against African green monkey Vero cells; type: cell-based; details: chlorocebus sabaeus, vero
[6] = Cytotoxicity against African green monkey Vero 76 cells; type: cell-based; details: chlorocebus sabaeus, vero 76
Hepatitis C virus = assay: Antiviral activity against Hepatitis C virus infected in human Ava5 cells after 3 days by neutral red dye-based plaque reduction assay; type: functional, organism-based; details: Hepacivirus hominis
Vaccinia virus = assay: Antiviral activity against Vaccinia virus infected in HEL cells after 3 days by neutral red dye-based plaque reduction assay; type: functional, organism-based; details: Orthopoxvirus vaccinia
[7] = Cytotoxicity against African green monkey CV1 cells; type: cell-based, CV-1; details: chlorocebus aethiops
HeLa = assay: Cytotoxicity against human HeLa cells; type: cell-based
Measles morbillivirus = assay: Antiviral activity against Measles virus infected in African green monkey CV1 cells after 3 days by neutral red dye-based plaque reduction assay; type: functional, organism-based; details: CV-1, 72 h
[8] = Cytotoxicity against monkey MA104 cells; type: cell-based, Macaca mulatta; details: rhesus monkey
[9] = Inhibition of rabbit erythrocytic AdoHcy hydrolase using AdoHcy as substrate assessed as formation of L-homocysteine preincubated for 5 mins followed by substrate addition measured after 1 hr by thiol quantitation reagent-based assay; parameters: species or system Oryctolagus cuniculus
[10] = Selectivity index, ratio of CC50 for human HepG2(2.2.1) cells to IC50 for HBV; type: functional
LLC-MK2 = assay: Cytotoxicity against monkey LLC-MK2 cells; type: cell-based, Macaca mulatta; details: rhesus monkey
Influenza A virus = assay: Antiviral activity against Influenza A virus H1N1 infected in MDCK cells after 3 days by neutral red dye-based plaque reduction assay; type: functional, organism-based
[11] = Cytotoxicity against African green monkey Vero E6 cells; type: cell-based; details: chlorocebus sabaeus
Enterovirus C = assay: Antiviral activity against Poliovirus infected in monkey LLC-MK2 cells after 3 days by neutral red dye-based plaque reduction assay; type: functional, organism-based
[12] = Selectivity index, ratio of CC50 for African green monkey Vero cells to IC50 for Yellow fever virus; type: functional
[13] = Cytotoxicity against human […] cells; type: cell-based
Human betaherpesvirus 5 = assay: Antiviral activity against HCMV infected in HFF after 3 days by neutral red dye-based plaque reduction assay; type: functional, organism-based; details: Human betaherpesvirus 5, 72 h
MDCK = assay: Cytotoxicity against MDCK cells; type: cell-based, Canis lupus familiaris; details: dog, mdck
Hepatitis B virus = assay: Antiviral activity against HBV infected in human HepG22.2.15 cells after 3 days by neutral red dye-based plaque reduction assay; type: functional, organism-based; details: HepG2 2.2.15, 72 h
[14] = Selectivity index, ratio of CC50 for HFF to IC50 for HCMV; type: functional
[15] = as §1; type: cell-based; details: chlorocebus sabaeus, Vero cells
[16] = Cytotoxicity against HFF; type: cell-based; details: human, HFF cells
Yellow fever virus = assay: Antiviral activity against Yellow fever virus infected in African green monkey Vero cells after 3 days by neutral red dye-based plaque reduction assay; type: functional, organism-based; details: 72 h
Human alphaherpesvirus 1 = assay: Antiviral activity against Human herpesvirus 1 infected in HEL cells after 3 days by neutral red dye-based plaque reduction assay; type: functional, organism-based
SARS-CoV = assay: Antiviral activity against SARS coronavirus infected in African green monkey Vero E6 cells after 3 days by neutral red dye-based plaque reduction assay; type: functional, organism-based; details: Severe acute respiratory syndrome-related coronavirus
Human alphaherpesvirus 2 = assay: Antiviral activity against Human herpesvirus 2 infected in HEL cells after 3 days by neutral red dye-based plaque reduction assay; type: functional, organism-based
Pichinde virus = assay: Antiviral activity against Pichinde virus infected in African green monkey Vero cells after 3 days by neutral red dye-based plaque reduction assay; type: functional, organism-based
Human papillomavirus = assay: Antiviral activity against Human papillomavirus infected in HEK293 cells after 3 days by neutral red dye-based plaque reduction assay; type: functional, organism-based
Cowpox virus = assay: Antiviral activity against Cowpox virus infected in HFF after 3 days by neutral red dye-based plaque reduction assay; type: functional, organism-based
Chikungunya virus = assay: Antiviral activity against Chikungunya virus infected in African green monkey Vero 76 cells after 3 days by neutral red dye-based plaque reduction assay; type: functional, cell-based
HEK293 = assay: Cytotoxicity against HEK293 cells; type: cell-based; details: human
Cytomegalovirus = assay: Antiviral activity against Cytomegalovirus infected in HEL cells after 3 days by neutral red dye-based plaque reduction assay; type: functional, organism-based
Enterovirus A71 = assay: Antiviral activity against Enterovirus 71 infected in monkey LLC-MK2 cells after 3 days by neutral red dye-based plaque reduction assay; type: functional, organism-based

| Compound | Activity [1] | Activity (Dengue virus) | Activity [2] | Activity [3] | Activity (HEL) | Activity [4] | Activity (Rift Valley fever virus) | Ratio CC50/IC50 [5] | Activity (West Nile virus) | Activity [6] | Activity (Hepatitis C virus) | Activity (Vaccinia virus) | CC50 [7] [µM] | Activity (HeLa) | IC50 (Measles morbillivirus) [µM] | Activity [8] | IC50 [9] [µM] | Activity (LLC-MK2) | Activity (Influenza A virus) | Activity [11] | also measured |
| --- | --- | --- | --- | --- | --- | --- | --- | --- | --- | --- | --- | --- | --- | --- | --- | --- | --- | --- | --- | --- | --- |
| Nc1nc(F)cc2c1ncn2[C@@H]1C[C@H](CCO)[C@@H](O)[C@H]1O | Non-toxic | inactive | inactive | inactive | Non-toxic | inactive | inactive | >2.1 | inactive | Non-toxic | inactive | inactive | > 338 | Non-toxic | 162 | Non-toxic | 3.75 | – | – | – | Activity (Tacaribe virus): inactive; Activity (Vero): Non-toxic |
| Nc1nc(F)cc2c1ncn2[C@@H]1C=C(CO)[C@@H](O)[C@H]1O | Non-toxic | inactive | inactive | inactive | Non-toxic | inactive | inactive | >12 | inactive | Non-toxic | inactive | inactive | > 100 | Non-toxic | 8.5 | Non-toxic | 1.4 | Non-toxic | inactive | Non-toxic | Ratio CC50/IC50 [10]: 17; Activity (Enterovirus C): inactive; Ratio CC50/IC50 [12]: >50; CC50 [13]: 11 µM; IC50 (Human betaherpesvirus 5): 8.7 µM; Activity (MDCK): Non-toxic; IC50 (Hepatitis B virus): 0.67 µM; Ratio CC50/IC50 [14]: 25; CC50 [15]: > 100 µM; CC50 [16]: 218 µM; IC50 (Yellow fever virus): 6.8 µM; Activity (Human alphaherpesvirus 1): inactive; Activity (SARS-CoV): inactive; Activity (Human alphaherpesvirus 2): inactive |
| Nc1nc(F)cc2c1ncn2[C@@H]1C=C(CCO)[C@@H](O)[C@H]1O | Non-toxic | inactive | inactive | inactive | Non-toxic | inactive | inactive | >1 | inactive | Non-toxic | inactive | inactive | > 100 | Non-toxic | 89.8 | Non-toxic | > 10 | Non-toxic | inactive | Non-toxic | Ratio CC50/IC50 [10]: 8; Activity (Enterovirus C): inactive; Ratio CC50/IC50 [12]: >3.4; CC50 [13]: 7.5 µM; IC50 (Human betaherpesvirus 5): < 0.1 µM; Activity (MDCK): Non-toxic; IC50 (Hepatitis B virus): 0.99 µM; Ratio CC50/IC50 [14]: > 300; CC50 [15]: > 100 µM; CC50 [16]: > 300 µM; IC50 (Yellow fever virus): 29 µM; Activity (Human alphaherpesvirus 1): inactive; Activity (SARS-CoV): inactive; Activity (Human alphaherpesvirus 2): inactive |
| Nc1nc(F)cc2c1ncn2[C@@H]1C[C@H](O)[C@@H](O)[C@H]1O | Non-toxic | inactive | inactive | inactive | Non-toxic | inactive | inactive | >3 | inactive | Non-toxic | inactive | inactive | > 100 | Non-toxic | 30.2 | Non-toxic | 1 | Non-toxic | inactive | Non-toxic | Activity (Pichinde virus): inactive; Activity (Human papillomavirus): inactive; Activity (Enterovirus C): inactive; Ratio CC50/IC50 [12]: >6.7; Activity (Cowpox virus): inactive; Activity (Tacaribe virus): inactive; Activity (Chikungunya virus): inactive; Activity (HEK293): Non-toxic; Activity (MDCK): Non-toxic; CC50 [15]: > 100 µM; Activity (Cytomegalovirus): inactive; IC50 (Yellow fever virus): 15 µM; Activity (Human alphaherpesvirus 1): inactive; Activity (SARS-CoV): inactive; Activity (Human alphaherpesvirus 2): inactive; Activity (Enterovirus A71): inactive |
